The test system of experiment [1] is Phosphorylation of ERK1/2 in A-427 cells. Kind of experiment: Phospho-ERK1/2 MSD Assay (A-427 cells). The class given is cell-based. As to conditions: Homo sapiens, A-427, 2 h, 2 h treatment, read-out: p-ERK (A427 cells) IC50. The essentials:
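ERK1/2 phosphorylation measured by Meso Scale whole-cell lysate assay after A-427 cells were exposed to a titration of compound for 2 h at 37 °C.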

Experiment [2] concerns the target His-tagged KRAS G12D protein (Homo sapiens, UniProt P01116, G12D). Kind of experiment: KRAS G12D TR-FRET Assay. In kind it is binding. Background: Time-resolved FRET reads energy transfer from a long-lived donor to a nearby acceptor.
Experiment [3] concerns the target GDP-bound KRAS protein (aa 1-169), containing both G12D and C118A amino acid substitutions (Homo sapiens, UniProt P01116, C118A/G12D). Kind of experiment: KRAS G12D Coupled Nucleotide Exchange Assay. The class given is biochemical. Conditions: 2 h compound pre-incubation. Here is the method: Following compound pre-incubation, purified SOS protein (aa 564-1049) and GTP (Roche 10106399001) were added to the assay wells and incubated for an additional 30 min. […] The assay plates were then read on a PerkinElmer EnVision Multilabel Reader, using AlphaScreen® technology, and data were analyzed using a 4-parameter logistic model to calculate IC50 values.

Experiment [4] concerns Phosphorylation of ERK1/2 in AsPC-1 cells. Kind of experiment: Phospho-ERK1/2 MSD Assay (AsPC-1 cells). In kind it is cell-based. As to conditions: Homo sapiens, ASPC1, 2 h, 2 hours treatment, read-out: p-ERK (AsPC-1 cells) IC50. The essentials:
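Read-out: MSD electrochemiluminescent detection of phosphorylated ERK1/2 in whole-cell lysates, fitted to a 4-parameter logistic curve for IC50. Prior to lysis, AsPC-1 cells (25,000 per well) received a 2 h compound dose-response at 37 °C.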

pIC50: −log10 of the molar value.

What is called pIC50 is the negative decadic logarithm of the IC50, by convention in mol/L.

Chain of GDP-bound KRAS protein (aa 1-169), containing both G12D and C118A amino acid substitutions (P01116 1-169 isoform P01116-2 G12D/C118A): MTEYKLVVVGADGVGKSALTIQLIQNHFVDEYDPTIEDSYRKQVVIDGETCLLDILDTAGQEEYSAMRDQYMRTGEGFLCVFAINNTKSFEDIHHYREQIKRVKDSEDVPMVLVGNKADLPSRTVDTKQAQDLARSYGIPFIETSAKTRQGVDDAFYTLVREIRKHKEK
Chain of His-tagged KRAS G12D protein (P01116 1-188 isoform P01116-2 G12D): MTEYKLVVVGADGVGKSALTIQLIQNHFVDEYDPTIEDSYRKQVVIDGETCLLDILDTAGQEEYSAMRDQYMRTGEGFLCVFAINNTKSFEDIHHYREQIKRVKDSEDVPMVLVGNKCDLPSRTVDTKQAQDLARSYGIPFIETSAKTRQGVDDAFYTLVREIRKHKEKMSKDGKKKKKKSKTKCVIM

`CCc1c(F)ccc2cc(O)cc(-c3c(F)cc4c(N5C[C@H]6CC[C@@H](C5)N6)nc(OC[C@@H]5CCC(=O)N5)nc4c3F)c12` [Example 126, (5S)-5-(((4-((1R,5S)-3,8-diazabicyclo[3.2.1]octan-3-yl)-7-(8-ethyl-7-fluoro-3-hydroxynaphthalen-1-yl)-6,8-difluoroquinazolin-2-yl)oxy)methyl) pyrrolidin-2-one]: the pIC50 in experiment [1] was 6.41; in experiment [2] it was 8.22; in experiment [4] it was 5.91. Moreover, the “Avg 2 h Coupled Exchange IC50” value in experiment [3] is 2 nM.
For `Oc1cc(-c2ccc3c(N4C[C@@H]5C[C@H]4CN5)nc(OC[C@@]45CCCN4C[C@H](F)C5)nc3c2F)c2ccccc2c1` [Example 50, 4-(4-((1S,4S)-2,5-diazabicyclo[2.2. 1]heptan-2-yl)-8-fluoro-2-(((2R,7aS)-2-fluorotetrahydro-1H-pyrrolizin-7a(5H)-yl)methoxy)quinazolin-7-yl)naphthalen-2-ol] the same measures were 6.00, 7.96, 5.35 and 7 nM.
For `Oc1cc(Cl)c(C2CC2)c(-c2ccc3c(N4C[C@H]5CC[C@@H](C4)N5)nc(OC[C@@]45CCCN4C[C@H](F)C5)nc3c2F)c1` [Example 145, 3-(4-((1R,5S)-3,8-diazabicyclo[3.2.1]octan-3-yl)-8-fluoro-2-(((2R,7aS)-2-fluorotetrahydro-1H-pyrrolizin-7a(5H)-yl)methoxy)quinazolin-7-yl)-5-chloro-4-cyclopropylphenol] the same measures were 7.96, 8.70, 7.41 and 3 nM.
For `Fc1c(-c2cccc(Cl)c2C(F)(F)F)ccc2c(N3C[C@H]4CC[C@@H](C3)N4)nc(OC[C@@]34CCCN3C[C@H](F)C4)nc12` [Example 156, 4-((1R,5S)-3,8-diazabicyclo[3.2.1]octan-3-yl)-7-(3-chloro-2-(trifluoromethyl)phenyl)-8-fluoro-2-(((2R,7aS)-2-fluorotetrahydro-1H-pyrrolizin-7a(5H)-yl)methoxy) quinazoline] the same measures were 5.93, 8.15, 6.06 and 3 nM.
For the compound `CCc1c(F)ccc2cc(O)cc(-c3c(F)cc4c(N5C[C@H]6CC[C@@H](C5)N6)nc(OC[C@H]5CCC(=O)N5)nc4c3F)c12` [Example 127, (5R)-5-(((4-((1R,5S)-3,8-diazabicyclo[3.2.1]octan-3-yl)-7-(8-ethyl-7-fluoro-3-hydroxynaphthalen-1-yl)-6,8-difluoroquinazolin-2-yl)oxy)methyl) pyrrolidin-2-one], the results for the pIC50 in experiment [1], in experiment [2] and in experiment [4] were 5.48, 7.92 and 5.12, respectively. Also, the “Avg 2 h Coupled Exchange IC50” value in experiment [3] stood at 3 nM.
In the case of `CCc1cccc2cc(O)cc(-c3ccc4c(N5CCC6CCC(C5)N6)nc(OC[C@@]56CCCN5C[C@H](F)C6)nc4c3F)c12` (stereo partly drawn) [Example 154, 4-(4-(3,9-diazabicyclo[4.2.1]nonan-3-yl)-8-fluoro-2-(((2R,7aS)-2-fluorotetrahydro-1H-pyrrolizin-7a(5H)-yl)methoxy)quinazolin-7-yl)-5-ethylnaphthalen-2-ol], the values for the pIC50 in experiment [1], in experiment [2] and in experiment [4] were 6.06, 7.89 and 5.99, respectively. Moreover, the “Avg 2 h Coupled Exchange IC50” value in experiment [3] came out at 12 nM.
For the compound `CCc1cccc2cccc(-c3ccc4c(N5C[C@H]6CC[C@@H](C5)N6)nc(OC[C@@]56CCCN5C[C@H](F)C6)nc4c3F)c12` [Example 54, 4-((1R,5S)-3,8-diazabicyclo[3.2. 1]octan-3-yl)-7-(8-ethylnaphthalen-1-yl)-8-fluoro-2-(((2R,7aS)-2-fluorotetrahydro-1H-pyrrolizin-7a(5H)-yl)methoxy) quinazoline], the negative-log IC50 (pIC50) in experiment [1] is 6.10; in experiment [2], 8.40; in experiment [4], 5.91. The “Avg 2 h Coupled Exchange IC50” value in experiment [3] turned out to be 3 nM.

For the origin of these results see patent publication US20250059205A1, “Heterocyclic Compounds and Methods of Use” (AMGEN INC., priority 2021, published 2025).
